The record followed here is article PMC3390344, “Antibacterial Activity and Mechanism of a Scorpion Venom Peptide Derivative In Vitro and In Vivo” (PLoS ONE, 2012).

Ends that are not written are not given here.

The subject of this experiment is S. aureus AB94004. Nature of the experiment: Bactericidal assay (time-killing). It counts as cell-based. As to conditions: samples at 0, 5, 15, 30, 60 min, colony counts, average of three dishes. The procedure:
Figure 5 Bactericidal assays of the Kn2-7 and BmKn2 peptides against S. aureus and E. coli AB94012. Set point indicates untreated bacteria, and 0 minutes was defined as the time of the first sample collection, which was immediately after mixing bacteria and Kn2-7 or BmKn2. The other samples were collected at 5 min, 15 min, 30 min or 60 min. All of the counts were the average of three dishes, and the experiment was repeated at least three times. (A) Time-killing curve of Kn2-7 against S. aureus AB94004. (B) Time-killing curve of BmKn2 against S. aureus AB94004. (C) Time-killing curve of Kn2-7 against E. coli AB94012.
Bactericidal curves for Kn2-7 and BmKn2 were determined against S. aureus AB94004 and E. coli AB94012. A 400 µl aliquot of the peptide solution was added to 1,600 µl of a bacterial suspension. At each time point, 200 µl of the treated bacterial suspension was transferred to a sterilized 1.5-ml tube. After centrifugation at 1,000×g for 5 min, the supernatant was removed, and the pellet was resuspended in 200 µl of LB medium. The bacterial suspensions were placed on agar plates and incubated at 37°C until viable colonies could be counted.

Regarding FIKRIARLLRKIF [Kn2-7], the “Bactericidal effect (time-killing curve)” value was “bactericidal effects”.
